Test results: ChEMBL document CHEMBL1149776, “Synthesis and biological evaluation of some thiazolyl and thiadiazolyl derivatives of 1H-pyrazole as anti-inflammatory antimicrobial agents” (Eur J Med Chem, 2008)
Values after ≈ are worked out from the molar mass of the structure shown.

Key:
Candida albicans = test: Antimicrobial activity against Candida albicans; type: functional
Rattus norvegicus [1] = species: Rattus norvegicus; test: Antiinflammatory activity in Sprague-Dawley rat cotton pellet-induced granuloma model; type: functional
Rattus norvegicus [2] = test: Gastrointestinal toxicity in albino rat assessed as ulcerogenic effect at 30 umol/kg, po for 3 days; type: organism-based; details: in vivo, 72 h
Escherichia coli = test: Antimicrobial activity against Escherichia coli ATCC 25922; type: functional
Staphylococcus aureus = test: Antimicrobial activity against Staphylococcus aureus ATCC 19433; type: functional
Rattus norvegicus [3] = test: Antiinflammatory activity in albino rat assessed as protection against carrageenan-induced paw edema at 10 umol/kg, sc administered 1 hr prior to carrageenan challenge relative to indomethacin; type: functional
[4] = target: Prostaglandin G/H synthase 1 (Homo sapiens, UniProt P23219); test: Inhibition of human platelet COX1
Chain of Prostaglandin G/H synthase 1 (P23219 whole entry): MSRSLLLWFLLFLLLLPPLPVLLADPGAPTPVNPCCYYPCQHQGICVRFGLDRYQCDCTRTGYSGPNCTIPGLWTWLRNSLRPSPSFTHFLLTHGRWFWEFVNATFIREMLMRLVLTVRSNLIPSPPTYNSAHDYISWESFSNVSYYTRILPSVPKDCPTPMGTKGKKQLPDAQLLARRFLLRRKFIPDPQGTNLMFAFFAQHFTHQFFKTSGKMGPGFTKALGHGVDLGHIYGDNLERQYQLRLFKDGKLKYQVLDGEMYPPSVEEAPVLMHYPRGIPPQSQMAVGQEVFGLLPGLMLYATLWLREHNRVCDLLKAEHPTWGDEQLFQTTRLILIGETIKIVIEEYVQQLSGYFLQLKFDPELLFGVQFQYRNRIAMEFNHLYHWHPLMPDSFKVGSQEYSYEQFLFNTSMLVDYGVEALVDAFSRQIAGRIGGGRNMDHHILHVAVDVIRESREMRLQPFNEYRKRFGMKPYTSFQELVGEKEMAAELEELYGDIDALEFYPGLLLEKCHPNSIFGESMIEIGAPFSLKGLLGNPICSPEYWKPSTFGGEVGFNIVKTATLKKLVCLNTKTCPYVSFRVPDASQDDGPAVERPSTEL

Mus musculus [5] = test: Toxicity in parenterally dosed mouse upto 65 mg/kg assessed as mortality upto 7 days; type: organism-based; design: dose 65 mg/kg; details: in vivo, 168 h
Mus musculus [6] = test: Toxicity in mouse upto 40 mg/kg, po assessed as mortality after 24 hrs; type: organism-based; design: dose 40 mg/kg, route oral; details: in vivo

MIC (Candida albicans) | MIC (Escherichia coli) | MIC (Staphylococcus aureus) | SMILES | ED50 (Rattus norvegicus [1]) | Activity (Rattus norvegicus [2]) | Activity (Rattus norvegicus [3]) | IC50 [4] | Activity (Mus musculus [5]) | Activity (Mus musculus [6])
> 200 µg/mL | 25 µg/mL (≈ 35.2 µM) | 25 µg/mL (≈ 35.2 µM) | CN(C)/C=N/S(=O)(=O)c1ccc(-n2cc(/C=N\N=c3/scc(-c4ccc(Br)cc4)n3-c3ccccc3)c(-c3ccccc3)n2)cc1 | 12.96 µmol | 0% |  |  |  | 
> 200 µg/mL | 100 µg/mL (≈ 177 µM) | 100 µg/mL (≈ 177 µM) | CN(C)/C=N/S(=O)(=O)c1ccc(-n2cc(-c3nnc(Nc4ccc(Cl)cc4)s3)c(-c3ccccc3)n2)cc1 | 11.88 µmol | 10% |  |  |  | 
25 µg/mL (≈ 39.7 µM) | 50 µg/mL (≈ 79.4 µM) | 100 µg/mL (≈ 159 µM) | CC(=O)N(C1=NN(C(C)=O)C(c2cn(-c3ccc(S(=O)(=O)/N=C/N(C)C)cc3)nc2-c2ccccc2)S1)c1ccc(C)cc1 (stereo unspecified) | 14.86 µmol | 10% |  |  |  | 
50 µg/mL (≈ 81.2 µM) | 50 µg/mL (≈ 81.2 µM) | > 200 µg/mL | CC(=O)N(C1=NN(C(C)=O)C(c2cn(-c3ccc(S(=O)(=O)/N=C/N(C)C)cc3)nc2-c2ccccc2)S1)c1ccccc1 (stereo unspecified) | 12.54 µmol | 20% |  |  |  | 
100 µg/mL (≈ 189 µM) | 100 µg/mL (≈ 189 µM) | > 200 µg/mL | CN(C)/C=N/S(=O)(=O)c1ccc(-n2cc(-c3nnc(Nc4ccccc4)s3)c(-c3ccccc3)n2)cc1 | 11.38 µmol | 0% |  |  |  | 
100 µg/mL (≈ 175 µM) | 50 µg/mL (≈ 87.5 µM) | 25 µg/mL (≈ 43.7 µM) | CN(C)/C=N/S(=O)(=O)c1ccc(-n2cc(/C=N\N=C3/SCC(=O)N3c3ccccc3)c(-c3ccccc3)n2)cc1 | 13.36 µmol | 10% |  |  |  | 

Continued, compound first:

SMILES | MIC (Candida albicans) | MIC (Escherichia coli) | MIC (Staphylococcus aureus) | ED50 (Rattus norvegicus [1]) | Activity (Rattus norvegicus [2]) | Activity (Rattus norvegicus [3]) | IC50 [4] | Activity (Mus musculus [5]) | Activity (Mus musculus [6])
CC(=O)N(C1=NN(C(C)=O)C(c2cn(-c3ccc(S(=O)(=O)/N=C/N(C)C)cc3)nc2-c2ccccc2)S1)c1ccc(Cl)cc1 (stereo unspecified) | 25 µg/mL (≈ 38.5 µM) | 50 µg/mL (≈ 76.9 µM) | > 200 µg/mL | 13.96 µmol | 10% |  |  |  | 
Cc1ccc(Nc2nnc(-c3cn(-c4ccc(S(=O)(=O)/N=C/N(C)C)cc4)nc3-c3ccccc3)s2)cc1 | > 200 µg/mL | 100 µg/mL (≈ 184 µM) | 25 µg/mL (≈ 46 µM) | 12.46 µmol | 10% |  |  |  | 
CN(C)/C=N/S(=O)(=O)c1ccc(-n2cc(/C=N\N=C3/SCC(=O)N3c3ccc(Cl)cc3)c(-c3ccccc3)n2)cc1 | > 200 µg/mL | 100 µg/mL (≈ 165 µM) | 25 µg/mL (≈ 41.2 µM) | 9.12 µmol | 10% | 104.16% | > 100 µmol | Non-toxic | Non-toxic
Cc1ccc(N2C(=O)CS/C2=N\N=C/c2cn(-c3ccc(S(=O)(=O)/N=C/N(C)C)cc3)nc2-c2ccccc2)cc1 | 100 µg/mL (≈ 171 µM) | 25 µg/mL (≈ 42.7 µM) | 100 µg/mL (≈ 171 µM) | 9.34 µmol | 20% | 98.65% | 87.12 µmol | Non-toxic | Non-toxic
CN(C)/C=N/S(=O)(=O)c1ccc(-n2cc(/C=N\N=c3/scc(-c4ccc(Br)cc4)n3-c3ccc(Cl)cc3)c(-c3ccccc3)n2)cc1 | 50 µg/mL (≈ 67.1 µM) | 100 µg/mL (≈ 134 µM) | 100 µg/mL (≈ 134 µM) | 9.56 µmol | 0% |  |  | Non-toxic | Non-toxic
Cc1ccc(-n2c(-c3ccc(Br)cc3)cs/c2=N\N=C/c2cn(-c3ccc(S(=O)(=O)/N=C/N(C)C)cc3)nc2-c2ccccc2)cc1 | 100 µg/mL (≈ 138 µM) | 50 µg/mL (≈ 69 µM) | 50 µg/mL (≈ 69 µM) | 11.06 µmol | 0% | 94.46% | 96.25 µmol |  | 
CC1(C)S[C@@H]2[C@H](NC(=O)[C@H](N)c3ccccc3)C(=O)N2[C@H]1C(=O)O [AMPICILLIN] |  | 25 µg/mL (≈ 71.5 µM) | 12.5 µg/mL (≈ 35.8 µM) |  |  |  |  |  | 
COc1ccc2c(c1)c(CC(=O)O)c(C)n2C(=O)c1ccc(Cl)cc1 [INDOMETHACIN] |  |  |  | 9.58 µmol | 100% |  |  |  | 
